These results are taken from ChEMBL document CHEMBL5380848, “Novel Benzo Five-Membered Heterocycle Derivatives as P-Glycoprotein Inhibitors: Design, Synthesis, Molecular Docking, and Anti-Multidrug Resistance Activity” (J Med Chem, 2023).

The target of data set [1] is ATP-dependent translocase ABCB1 (Homo sapiens, UniProt P08183). Briefly: Inhibition of P-gp-mediated multidrug resistance in doxorubicin-resistant human MCF7/ADR cells assessed as fold reversal of resistance by measuring doxorubicin IC50 incubated for 48 hrs by CCK-8 assay relative to doxorubicin IC50 in absence of compound. The class given is cell-based. The settings on record: nci-adr-res. In general terms: Tetrazolium dyes change colour on reduction, which living cells bring about.
Chain of ATP-dependent translocase ABCB1 (P08183 whole entry): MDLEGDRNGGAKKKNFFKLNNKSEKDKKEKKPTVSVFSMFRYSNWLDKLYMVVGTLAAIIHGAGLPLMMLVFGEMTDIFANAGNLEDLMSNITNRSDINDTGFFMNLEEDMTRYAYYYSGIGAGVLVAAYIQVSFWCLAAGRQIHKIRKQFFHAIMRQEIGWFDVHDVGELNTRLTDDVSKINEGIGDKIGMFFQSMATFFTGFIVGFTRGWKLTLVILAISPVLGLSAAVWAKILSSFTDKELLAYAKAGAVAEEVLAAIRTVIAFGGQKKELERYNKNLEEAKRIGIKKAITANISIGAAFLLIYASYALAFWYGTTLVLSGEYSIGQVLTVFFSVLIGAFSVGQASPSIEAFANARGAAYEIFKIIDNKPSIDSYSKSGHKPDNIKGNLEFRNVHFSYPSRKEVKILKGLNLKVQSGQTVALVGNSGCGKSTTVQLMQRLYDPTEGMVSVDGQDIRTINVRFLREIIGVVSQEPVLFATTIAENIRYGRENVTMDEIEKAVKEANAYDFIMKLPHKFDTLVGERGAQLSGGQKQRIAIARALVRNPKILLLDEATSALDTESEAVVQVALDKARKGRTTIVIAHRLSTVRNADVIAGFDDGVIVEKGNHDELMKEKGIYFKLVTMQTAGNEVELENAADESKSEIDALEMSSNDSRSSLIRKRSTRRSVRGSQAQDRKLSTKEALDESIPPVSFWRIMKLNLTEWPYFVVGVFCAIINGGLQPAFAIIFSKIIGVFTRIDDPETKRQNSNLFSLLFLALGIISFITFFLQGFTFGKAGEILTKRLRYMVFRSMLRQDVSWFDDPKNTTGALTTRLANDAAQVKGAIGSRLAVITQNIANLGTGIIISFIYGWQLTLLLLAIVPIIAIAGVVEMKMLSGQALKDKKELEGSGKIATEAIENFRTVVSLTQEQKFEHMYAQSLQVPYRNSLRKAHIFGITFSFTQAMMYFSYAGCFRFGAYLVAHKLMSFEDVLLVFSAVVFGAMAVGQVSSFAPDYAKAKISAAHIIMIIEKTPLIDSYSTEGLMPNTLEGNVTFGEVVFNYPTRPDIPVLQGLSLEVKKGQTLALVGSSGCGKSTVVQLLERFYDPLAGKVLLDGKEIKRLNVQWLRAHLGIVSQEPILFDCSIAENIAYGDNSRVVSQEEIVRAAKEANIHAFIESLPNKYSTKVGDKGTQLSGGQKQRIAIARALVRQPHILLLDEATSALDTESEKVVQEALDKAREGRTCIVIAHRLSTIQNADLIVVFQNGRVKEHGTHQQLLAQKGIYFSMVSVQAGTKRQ

The next data set has as its system NCI/ADR-RES. Put plainly: Cytotoxicity against doxorubicin-resistant human MCF-7/ADR cells assessed as inhibition rate at 5 uM measured after […] hrs by CCK-8 assay relative to control. In kind it is functional.
The test system of a further data set is MCF7. Briefly: Cytotoxicity against human MCF7 cells assessed as inhibition rate at 5 uM measured after […] hrs by CCK-8 assay relative to control. The class given is functional.

Structures are written as SMILES.

`COc1cc2c(cc1OC)CN(C(=O)c1cc3cc(-c4ccc(NC(=O)c5ccc(Cl)cc5)cc4)ccc3n1Cc1cccc(F)c1)CC2`: the “fold change (FC)” value in data set [1] was determined as 37.6. For the same compound, the inhibition at 5 µM in the data set with NCI/ADR-RES was -2.6%; with MCF7, 1.7%.
Turning to `COc1cc2c(cc1OC)CN(C(=O)c1cc3cc(-c4ccc(NC(=O)c5ccc(Cl)cc5)cc4)ccc3n1Cc1cccc(Cl)c1)CC2`, in data set [1], the “fold change (FC)” value stood at 27.5. The results for the inhibition at 5 µM in the data set with NCI/ADR-RES and in the data set on MCF7 were 0.1% and 1.3%, respectively.
Take `COc1cc2c(cc1OC)CN(C(=O)c1cc3cc(-c4ccc(NC(=O)c5ccc(Cl)cc5)cc4)ccc3n1Cc1ccc(Br)cc1)CC2`: the “fold change (FC)” value in data set [1] is 31.1. The values for the inhibition at 5 µM in the data set with NCI/ADR-RES and with MCF7 were -13.8% and 3.5%, respectively.
As to `COc1cc2c(cc1OC)CN(C(=O)c1cc3cc(-c4ccc(NC(=O)c5ccccc5Cl)cc4)ccc3[nH]1)CC2`, the “fold change (FC)” value in data set [1] came to 241.9. Moreover, the inhibition at 5 µM was found to be 12.4% with NCI/ADR-RES and 12.7% with MCF7.
With `COc1cc2c(cc1OC)CN(C(=O)c1cc3cc(-c4ccc(NC(=O)c5ccc(Cl)cc5)cc4)ccc3n1Cc1ccc([N+](=O)[O-])cc1)CC2`, the “fold change (FC)” value in data set [1] stood at 25.9. Also, the inhibition at 5 µM in the data set with NCI/ADR-RES worked out at 12.8%; in the data set on MCF7, 19.1%.
Take `COc1cc2c(cc1OC)CN(C(=O)c1cc3cc(-c4ccc(NC(=O)c5ccc(Cl)cc5)cc4)ccc3n1Cc1ccccc1)CC2`: in data set [1], the “fold change (FC)” value worked out at 55.4. The figures for the inhibition at 5 µM with NCI/ADR-RES and in the data set on MCF7 were 6.9% and 10.1%, respectively.
Turning to `COc1cc2c(cc1OC)CN(C(=O)c1cc3cc(-c4ccc(NC(=O)c5ccc(Cl)cc5)cc4)ccc3n1Cc1cc(C(F)(F)F)cc(C(F)(F)F)c1)CC2`, the “fold change (FC)” value in data set [1] is given as 40.9. Further, the figures for the inhibition at 5 µM in the data set with NCI/ADR-RES and in the data set on MCF7 were 1.9% and 3.8%, respectively.
Taken in the same sequence, the figures for `COc1cc2c(cc1OC)CN(C(=O)c1cc3cc(-c4ccc(NC(=O)c5cccc(F)c5)cc4)ccc3[nH]1)CC2` were 1021.3, 34.1% and 31.5%.
As for `COc1ccc(Cn2c(C(=O)N3CCc4cc(OC)c(OC)cc4C3)cc3cc(-c4ccc(NC(=O)c5ccc(Cl)cc5)cc4)ccc32)cc1`, the “fold change (FC)” value in data set [1] is on record as 105.6. Also, the inhibition at 5 µM with NCI/ADR-RES is 18.1%; in the data set with MCF7, 3.2%.
As for `COc1cc2c(cc1OC)CN(C(=O)c1cc3cc(-c4ccc(NC(=O)c5ccc(Cl)cc5)cc4)ccc3n1Cc1cccc(C(F)(F)F)c1)CC2`, in data set [1], the “fold change (FC)” value worked out at 39.9. Besides, the inhibition at 5 µM with NCI/ADR-RES was determined as 6.3%; with MCF7, 8.5%.
For the compound `COc1cc2c(cc1OC)CN(C(=O)c1cc3cc(-c4ccc(NC(=O)c5ccc(Cl)cc5)cc4)ccc3n1Cc1ccc(C(F)(F)F)cc1)CC2`, the “fold change (FC)” value in data set [1] is reported as 29. For the same compound, the inhibition at 5 µM in the data set on NCI/ADR-RES was determined as 12.6%; in the data set on MCF7, 15.5%.
For the compound `COc1cc2c(cc1OC)CN(C(=O)c1cc3cc(-c4ccc(NC(=O)c5ccc(C(F)(F)F)cc5)cc4)ccc3[nH]1)CC2`, the “fold change (FC)” value in data set [1] turned out to be 1717. Also, the inhibition at 5 µM with NCI/ADR-RES was 22%; in the data set with MCF7 it was 11.8%.
Regarding `COc1cc2c(cc1OC)CN(CCc1ccc(NC(=O)c3cc(OC)c(OC)cc3NC(=O)c3cnc4ccccc4c3)cc1)CC2`, the “fold change (FC)” value in data set [1] was found to be 283.2. Besides, the figures for the inhibition at 5 µM in the data set on NCI/ADR-RES and with MCF7 were 48.9% and 42.8%, respectively.
In the same order, the values of `COc1cc2c(cc1OC)CN(C(=O)c1cc3cc(-c4ccc(NC(=O)c5ccc(Cl)cc5)cc4)ccc3n1Cc1ccc(Cl)cc1)CC2` are 25.9, -3.3% and 2.6%.
As for `COc1cc2c(cc1OC)CN(C(=O)c1cc3cc(-c4ccc(NC(=O)c5ccc(Oc6ccccc6)cc5)cc4)ccc3[nH]1)CC2`, the “fold change (FC)” value in data set [1] amounted to 23. The values for the inhibition at 5 µM in the data set with NCI/ADR-RES and in the data set on MCF7 were 15.5% and 19%, respectively.
In the same order, the values of `COc1cc2c(cc1OC)CN(C(=O)c1cc3cc(-c4ccc(NC(=O)c5ccc(Cl)cc5)cc4)ccc3n1Cc1ccccc1Cl)CC2` are 30.3, 18.6% and 13.4%.
With `COc1cc2c(cc1OC)CN(C(=O)c1cc3cc(-c4ccc(NC(=O)c5ccccc5F)cc4)ccc3[nH]1)CC2`, the “fold change (FC)” value in data set [1] is on record as 469.8. For the same compound, the inhibition at 5 µM in the data set on NCI/ADR-RES amounted to 18.7%; in the data set with MCF7, 13.9%.
As for `COc1cc2c(cc1OC)CN(C(=O)c1cc3cc(-c4ccc(NC(=O)c5ccc(Cl)cc5)cc4)ccc3n1Cc1ccccc1Br)CC2`, the “fold change (FC)” value in data set [1] came to 36.1. In addition, the inhibition at 5 µM in the data set with NCI/ADR-RES is 17.1%; with MCF7, 18.2%.
Take `COc1cc(Cn2c(C(=O)N3CCc4cc(OC)c(OC)cc4C3)cc3cc(-c4ccc(NC(=O)c5ccc(Cl)cc5)cc4)ccc32)cc(OC)c1`: the “fold change (FC)” value in data set [1] is on record as 41.5. The inhibition at 5 µM in the data set with NCI/ADR-RES came out at 11.2%; with MCF7, 3%.
In the case of `COc1cc2c(cc1OC)CN(C(=O)c1cc3cc(-c4ccc(NC(=O)c5ccc(Cl)cc5)cc4)ccc3n1Cc1ccccc1F)CC2`, the “fold change (FC)” value in data set [1] was determined as 92.1. The inhibition at 5 µM in the data set with NCI/ADR-RES worked out at 14.3%; with MCF7, 5.3%.
Turning to `COc1ccc(C(=O)Nc2ccc(-c3ccc4[nH]c(C(=O)N5CCc6cc(OC)c(OC)cc6C5)cc4c3)cc2)cc1OC`, in data set [1], the “fold change (FC)” value came out at 486.9. For the same compound, the figures for the inhibition at 5 µM in the data set on NCI/ADR-RES and with MCF7 were 37.2% and 20.6%, respectively.

The term inhibition denotes the change of the read-out against control, counted positive when it falls.
